# Source: PubChem BioAssay (NCI)
#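 GI50: concentration for 50% inhibition of growth. At the TGI there is no net growth.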
# Legend:
# Experiment in all cases: growth of human tumour cells (NCI), 384-well format
# T-47D breast = test system: T-47D breast
# SK-OV-3 ovarian = test system: SK-OV-3 ovarian
# PC-3 prostate = test system: PC-3 prostate
# NCI-H522 lung = test system: NCI-H522 lung
# HCT-15 colon = test system: HCT-15 colon
# UO-31 renal = test system: UO-31 renal
# RPMI-8226 leukemia = test system: RPMI-8226 leukemia
# K-562 leukemia = test system: K-562 leukemia
# OVCAR-8 ovarian = test system: OVCAR-8 ovarian
# UACC-257 melanoma = test system: UACC-257 melanoma
# MDA-MB-435 melanoma = test system: MDA-MB-435 melanoma
# OVCAR-4 ovarian = test system: OVCAR-4 ovarian
# 786-0 renal = test system: 786-0 renal
# SK-MEL-5 melanoma = test system: SK-MEL-5 melanoma
# A498 renal = test system: A498 renal
# LOX IMVI melanoma = test system: LOX IMVI melanoma
# MCF7 breast = test system: MCF7 breast
# NCI-H226 lung = test system: NCI-H226 lung
# SF-539 CNS = test system: SF-539 CNS
# DU-145 prostate = test system: DU-145 prostate
# UACC-62 melanoma = test system: UACC-62 melanoma
# SF-268 CNS = test system: SF-268 CNS
# SF-295 CNS = test system: SF-295 CNS
# TK-10 renal = test system: TK-10 renal
# NCI-H23 lung = test system: NCI-H23 lung
# MDA-MB-231 breast = test system: MDA-MB-231 breast
# A549 NSCLC = test system: A549 NSCLC
# MDA-MB-468 breast = test system: MDA-MB-468 breast
# NCI-H322M lung = test system: NCI-H322M lung
# OVCAR-5 ovarian = test system: OVCAR-5 ovarian
# CCRF-CEM leukemia = test system: CCRF-CEM leukemia
# HCT-116 colon = test system: HCT-116 colon
# RXF 393 renal = test system: RXF 393 renal
# IGROV1 ovarian = test system: IGROV1 ovarian
# SW-620 colon = test system: SW-620 colon
# SNB-19 CNS = test system: SNB-19 CNS
# BT-549 breast = test system: BT-549 breast
# CAKI-1 renal = test system: CAKI-1 renal
# SK-MEL-2 melanoma = test system: SK-MEL-2 melanoma
# HT29 colon = test system: HT29 colon
# SK-MEL-28 melanoma = test system: SK-MEL-28 melanoma
# M14 melanoma = test system: M14 melanoma
# MOLT-4 leukemia = test system: MOLT-4 leukemia
# MALME-3M melanoma = test system: MALME-3M melanoma
# SN12C renal = test system: SN12C renal
# COLO 205 colon = test system: COLO 205 colon
# KM12 colon = test system: KM12 colon
# ACHN renal = test system: ACHN renal
# HL-60(TB) leukemia = test system: HL-60(TB) leukemia
# NCI/ADR-RES ovarian = test system: NCI/ADR-RES ovarian
# OVCAR-3 ovarian = test system: OVCAR-3 ovarian
# HCC-2998 colon = test system: HCC-2998 colon
# HOP-92 NSCLC = test system: HOP-92 NSCLC
# NCI-H460 NSCLC = test system: NCI-H460 NSCLC
# SR leukemia = test system: SR leukemia
# U251 glioblastoma = test system: U251 glioblastoma
# HOP-62 NSCLC = test system: HOP-62 NSCLC
smiles,measurement,setting,value
COCCNCc1ccc(-c2cc3nccc(Oc4ccc(NC(=S)NC(=O)Cc5ccc(F)cc5)cc4F)c3s2)nc1,GI50,T-47D breast,1480 nM
same,TGI,T-47D breast,2810 nM
same,GI50,SK-OV-3 ovarian,1550 nM
same,TGI,SK-OV-3 ovarian,2890 nM
same,GI50,PC-3 prostate,1810 nM
same,TGI,PC-3 prostate,3210 nM
same,GI50,NCI-H522 lung,1670 nM
same,TGI,NCI-H522 lung,3030 nM
same,GI50,HCT-15 colon,1710 nM
same,TGI,HCT-15 colon,3110 nM
same,GI50,UO-31 renal,1600 nM
same,TGI,UO-31 renal,2950 nM
same,GI50,RPMI-8226 leukemia,614 nM
same,TGI,RPMI-8226 leukemia,1820 nM
same,GI50,K-562 leukemia,177 nM
same,TGI,K-562 leukemia,343 nM
same,GI50,OVCAR-8 ovarian,1420 nM
same,TGI,OVCAR-8 ovarian,2740 nM
same,GI50,UACC-257 melanoma,1090 nM
same,TGI,UACC-257 melanoma,2290 nM
same,GI50,MDA-MB-435 melanoma,1860 nM
same,TGI,MDA-MB-435 melanoma,3270 nM
same,GI50,OVCAR-4 ovarian,1090 nM
same,TGI,OVCAR-4 ovarian,2300 nM
same,GI50,786-0 renal,1480 nM
same,TGI,786-0 renal,2820 nM
same,GI50,SK-MEL-5 melanoma,1260 nM
same,TGI,SK-MEL-5 melanoma,2520 nM
same,GI50,A498 renal,1560 nM
same,TGI,A498 renal,2900 nM
same,GI50,LOX IMVI melanoma,2020 nM
same,TGI,LOX IMVI melanoma,3460 nM
same,GI50,MCF7 breast,1480 nM
same,TGI,MCF7 breast,2810 nM
same,GI50,NCI-H226 lung,1950 nM
same,TGI,NCI-H226 lung,3620 nM
same,GI50,SF-539 CNS,969 nM
same,TGI,SF-539 CNS,2150 nM
same,GI50,DU-145 prostate,1860 nM
same,TGI,DU-145 prostate,3290 nM
same,GI50,UACC-62 melanoma,1520 nM
same,TGI,UACC-62 melanoma,2860 nM
same,GI50,SF-268 CNS,1570 nM
same,TGI,SF-268 CNS,2920 nM
same,GI50,SF-295 CNS,875 nM
same,TGI,SF-295 CNS,2110 nM
same,GI50,TK-10 renal,1780 nM
same,TGI,TK-10 renal,3170 nM
same,GI50,NCI-H23 lung,486 nM
same,TGI,NCI-H23 lung,2200 nM
same,GI50,MDA-MB-231 breast,1440 nM
same,TGI,MDA-MB-231 breast,2760 nM
same,GI50,A549 NSCLC,1680 nM
same,TGI,A549 NSCLC,3070 nM
same,GI50,MDA-MB-468 breast,1850 nM
same,TGI,MDA-MB-468 breast,3250 nM
same,GI50,NCI-H322M lung,1700 nM
same,TGI,NCI-H322M lung,3090 nM
same,GI50,OVCAR-5 ovarian,1940 nM
same,TGI,OVCAR-5 ovarian,3380 nM
same,GI50,CCRF-CEM leukemia,868 nM
same,TGI,CCRF-CEM leukemia,2070 nM
same,GI50,HCT-116 colon,1280 nM
same,TGI,HCT-116 colon,2560 nM
same,GI50,RXF 393 renal,1590 nM
same,TGI,RXF 393 renal,2940 nM
same,GI50,IGROV1 ovarian,1640 nM
same,TGI,IGROV1 ovarian,3540 nM
same,GI50,SW-620 colon,1550 nM
same,TGI,SW-620 colon,2920 nM
same,GI50,SNB-19 CNS,1780 nM
same,TGI,SNB-19 CNS,3190 nM
same,GI50,BT-549 breast,1600 nM
same,TGI,BT-549 breast,2950 nM
same,GI50,CAKI-1 renal,1520 nM
same,TGI,CAKI-1 renal,2860 nM
same,GI50,SK-MEL-2 melanoma,1960 nM
same,TGI,SK-MEL-2 melanoma,3380 nM
same,GI50,HT29 colon,1160 nM
same,TGI,HT29 colon,2410 nM
same,GI50,SK-MEL-28 melanoma,1500 nM
same,TGI,SK-MEL-28 melanoma,2830 nM
same,GI50,M14 melanoma,1580 nM
same,TGI,M14 melanoma,2940 nM
same,GI50,MOLT-4 leukemia,582 nM
same,TGI,MOLT-4 leukemia,1780 nM
same,GI50,MALME-3M melanoma,1540 nM
same,TGI,MALME-3M melanoma,2890 nM
same,GI50,SN12C renal,1140 nM
same,TGI,SN12C renal,2350 nM
same,GI50,COLO 205 colon,1610 nM
same,TGI,COLO 205 colon,2980 nM
same,GI50,KM12 colon,385 nM
same,TGI,KM12 colon,1440 nM
same,GI50,ACHN renal,1720 nM
same,TGI,ACHN renal,3110 nM
same,GI50,HL-60(TB) leukemia,621 nM
same,TGI,HL-60(TB) leukemia,1750 nM
same,GI50,NCI/ADR-RES ovarian,1580 nM
same,TGI,NCI/ADR-RES ovarian,2930 nM
same,GI50,OVCAR-3 ovarian,1890 nM
same,TGI,OVCAR-3 ovarian,3310 nM
same,GI50,HCC-2998 colon,1850 nM
same,TGI,HCC-2998 colon,3260 nM
same,GI50,HOP-92 NSCLC,1260 nM
same,TGI,HOP-92 NSCLC,2520 nM
same,GI50,NCI-H460 NSCLC,1420 nM
same,TGI,NCI-H460 NSCLC,2750 nM
same,GI50,SR leukemia,187 nM
same,TGI,SR leukemia,330 nM
same,GI50,U251 glioblastoma,1300 nM
same,TGI,U251 glioblastoma,2580 nM
same,GI50,HOP-62 NSCLC,1930 nM
same,TGI,HOP-62 NSCLC,3350 nM
